Reference: paper PMC9013686, “Inter-individual variation in chlorpyrifos toxicokinetics characterized by physiologically based kinetic (PBK) and Monte Carlo simulation comparing human liver microsome and Supersome™ cytochromes P450 (CYP)-specific kinetic data as model input” (Archives of Toxicology, 2022)
“And” between values parts separate entries of the source, which are not always exact repeats. Equal entries are not always repeated. Where two headings read alike, the source gives them in different places.

What was measured:
CYP2B6 [1] = biological target: T1, CYP2B6 (Homo sapiens, UniProt P20813); test: Supersome CYP2B6 kinetic incubations; assay type: in vitro ADME; set-up: purchased Corning (Amsterdam, The Netherlands); host or cells: baculovirus-transfected insect cells; settings: for Scaled Vmax(app): CYP2B6 scaled to whole liver by Eq. 3; for Vmax (app) / Km: Supersome CYP2B6; for Km: human, recombinant CYP2B6 Supersomes, pH 7.4, Km(app)
T1 sequence (P20813 1-491): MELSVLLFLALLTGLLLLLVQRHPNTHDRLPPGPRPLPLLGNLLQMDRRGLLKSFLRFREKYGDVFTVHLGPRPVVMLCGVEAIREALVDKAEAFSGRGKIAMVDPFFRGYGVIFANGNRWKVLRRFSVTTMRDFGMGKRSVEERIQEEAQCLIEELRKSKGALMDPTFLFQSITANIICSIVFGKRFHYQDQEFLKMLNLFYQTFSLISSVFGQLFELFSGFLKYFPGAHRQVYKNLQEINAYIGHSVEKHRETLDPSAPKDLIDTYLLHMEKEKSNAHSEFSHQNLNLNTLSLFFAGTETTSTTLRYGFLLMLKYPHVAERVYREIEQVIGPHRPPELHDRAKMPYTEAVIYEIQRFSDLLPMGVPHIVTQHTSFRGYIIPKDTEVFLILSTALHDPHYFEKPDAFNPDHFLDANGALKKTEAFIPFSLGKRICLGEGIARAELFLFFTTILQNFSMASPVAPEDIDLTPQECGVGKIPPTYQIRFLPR
Description: The final incubations were carried out in 50 mM Tris–HCl (pH 7.4) containing 5 mM MgCl2, 1 mM EDTA (as an A-esterase PON1 inhibitor) (Bizoń and Milnerowicz [2018]), 50 µM iso-OMPA (as a B-esterases inhibitor) (Lane et al. [2006]), Supersome™ isoform (at final concentration of 0.005 nmol CYP/ml for 1A2, 0.001 nmol CYP/ml for 2B6, 0.01 nmol CYP/ml for 2C19, and 0.01 nmol CYP/ml for 3A4) and CPF at different final concentrations (0.05, 0.1, 0.25, 0.5, 1, 5 and 10 µM for 1A2, 0.05, 0.1, 0.25, 0.5, 1, 5 10 and 25 µM for 2B6, 1, 2.5, 5, 10, 25 and 50 µM for 2C19, and 0.5, 1, 2.5, 5, 10, 25 and 50 µM for 3A4), which were added from 100 times concentrated stock solutions in ACN. After 1 min preincubation in a 37 °C water bath, 5 µl NADPH (final concentration 1 mM) was added to the incubation system. Control incubations were performed by replacing NADPH with the same amount of Tris–HCl (pH 7.4). The total volume of the incubation mixtures was 200 µl. The incubations lasted for 2 min at 37 °C and were terminated by addition of 50 µl ice cold ACN and subsquently put on ice. After that, samples were centrifuged at 16,000 g (4 ℃) for 5 min and supernatants of samples were separated into two equal portions for Ultra-Performance Liquid Chromatography-Photodiode Array (UPLC-PDA) and Liquid Chromatography Mass Spectrometry (LC–MS/MS) analysis, respectively.
To normalize for differences in intrinsic CYP activity between Supersome™ and pooled HLMs and enable scaling of the activities to the in vivo situation, CYP-specific ISEF values need to be established. […] The incubation method was similar as used for the CPF kinetic incubation assay described above, except that certain incubation conditions were replaced by the conditions listed in Table 1. The samples obtained were analyzed by UPLC-PDA for acetaminophen, 4-hydroxymephenytoin, and 6β-hydroxytestosterone formation catalyzed by 1A2, 2C19 and 3A4, or LC–MS/MS for (±)-hydroxybupropion formation catalyzed by 2B6.
As mentioned before, the in vitro apparent kinetic parameters (Vmax and Km) for pathway 1 and pathway 2 in the HLM-based approach, and pathway 3 in both approaches were all obtained directly from reported studies using pooled HLMs (Buratti et al. [2003]; Sams et al. [2004]; Zhao et al. [2019]). Therefore, no extra calculations were required to define these parameters. The kinetic parameters for the ISEF calculation, pathway 1 and 2 in the Supersome™-based approach, and pathway 4 in both approaches (25 individuals) were all obtained by fitting the experimental data to the Michaelis–Menten model using GraphPad (GraphPad Prism 5.0 software, San Diego, CA, USA). It should be noted that the kinetic parameters for pathway 4 used in the two approaches were calculated as mean of the kinetic parameters (Vmax and Km) obtained using 25 individual HP samples (with correction for total protein concentration of each plasma sample).
The in vivo Kmi values were assumed to be equal to the apparent Kmi(app) values (µM) obtained in the in vitro incubations, while the in vivo Vmaxi for each CYP isoform was derived from their corresponding apparent CYP isoform Vmaxi(app) (pmol/min/pmolCYP) using Eq. 3:3 Vmaxi=Vmaxiapp×CYPiabundance×ISEF×60×MPL×1000×VL/1,000,000,

CYP3A4 = CYP3A4 (Homo sapiens, UniProt P08684); settings: Supersome CYP3A4; bioactivation of CPF; ref Foxenberg et al. ([2007]); cited from earlier work
Sequence of CYP3A4 (P08684 2-503 limits assumed): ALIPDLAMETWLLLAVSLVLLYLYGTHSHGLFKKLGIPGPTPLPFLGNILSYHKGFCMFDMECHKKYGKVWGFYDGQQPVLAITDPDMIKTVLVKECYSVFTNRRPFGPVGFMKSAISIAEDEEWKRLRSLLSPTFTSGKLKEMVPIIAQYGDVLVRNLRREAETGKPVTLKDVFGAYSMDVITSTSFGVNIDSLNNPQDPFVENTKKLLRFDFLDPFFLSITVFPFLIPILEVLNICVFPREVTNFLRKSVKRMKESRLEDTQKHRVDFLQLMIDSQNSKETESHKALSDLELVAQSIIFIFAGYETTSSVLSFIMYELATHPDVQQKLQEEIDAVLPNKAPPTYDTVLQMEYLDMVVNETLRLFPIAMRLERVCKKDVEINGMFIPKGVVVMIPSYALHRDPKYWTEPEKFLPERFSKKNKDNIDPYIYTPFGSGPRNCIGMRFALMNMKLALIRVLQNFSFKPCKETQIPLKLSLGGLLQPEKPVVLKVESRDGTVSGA

CYP2B6 [2] = biological target: T1, CYP2B6; settings: bioactivation of CPF, ref Foxenberg et al. [2007]; cited from earlier work
CYP2C19 = CYP2C19 (Homo sapiens, UniProt P33261); settings: bioactivation of CPF, ref Foxenberg et al. [2007]; cited from earlier work
Sequence of CYP2C19 (P33261 whole entry): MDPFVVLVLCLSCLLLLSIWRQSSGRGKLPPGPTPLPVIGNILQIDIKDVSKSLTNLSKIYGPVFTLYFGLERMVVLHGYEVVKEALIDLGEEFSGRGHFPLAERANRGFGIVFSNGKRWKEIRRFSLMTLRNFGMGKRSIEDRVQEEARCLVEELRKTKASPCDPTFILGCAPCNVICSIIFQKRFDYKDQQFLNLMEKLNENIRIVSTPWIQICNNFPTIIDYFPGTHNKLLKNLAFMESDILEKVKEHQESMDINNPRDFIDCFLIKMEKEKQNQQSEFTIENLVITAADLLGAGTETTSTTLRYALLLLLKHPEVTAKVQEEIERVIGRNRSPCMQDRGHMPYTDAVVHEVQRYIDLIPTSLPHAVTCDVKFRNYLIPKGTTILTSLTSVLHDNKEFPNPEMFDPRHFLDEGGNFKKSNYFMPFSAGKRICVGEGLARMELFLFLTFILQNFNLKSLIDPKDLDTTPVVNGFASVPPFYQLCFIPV

pooled HLMs (CYPs) = settings: cited from earlier work
[3] = cited from earlier work
rat liver microsomes = settings: bioactivation of CPF, biphasic kinetics; ref Ma and Chambers ([1995]); cited from earlier work
RBC AChE = settings: ref USEPA (2014); cited from earlier work
[4] = Pathway 2 (CPF to TCPy), pooled HLMs, CPF 3–100 µM, ref Sams et al. ([2004])

In the case of `CCOP(=S)(OCC)Oc1nc(Cl)c(Cl)cc1Cl` [CPF, Chlorpyrifos], the “Scaled Vmax(app)” value (CYP2B6 [1]; Pathway 1 (CPF to CPO)) is reported as 203.94 µmol/h, the “Vmax (app)” value (CYP2B6 [1]; Pathway 1 (CPF to CPO)) is reported as 7.76 pmol/min/pmolCYP and the “Scaled Vmax(app)” value (CYP2B6 [1]; Pathway 2 (CPF to TCPy)) is reported as 144.28 µmol/h. For the same compound, the “Vmax (app)” value (CYP2B6 [1]; Pathway 2 (CPF to TCPy)) was 5.49 pmol/min/pmolCYP, the Km (CYP2B6 [1]; Pathway 1 (bioactivation of CPF to CPO)) was 0.14 µM and the Km (CYP2B6 [1]; Pathway 2 (detoxification of CPF to TCPy)) was 1.28 µM. For the same compound, the Km (CYP3A4) was 27.3 µM, the Km (CYP2B6 [2]) was 0.81 µM and the Km (CYP2C19) was 1.23 µM. For the same compound, the “Vmax (high affinity)” value (pooled HLMs (CYPs); Pathway 1 (CPF to CPO), pooled HLMs, CPF 0.02–10 µM, ref Buratti et al. ([2003])) was 0.275 nmol/min/mg microsomal protein, the “Vmax (low affinity)” value (pooled HLMs (CYPs); Pathway 1 (CPF to CPO), pooled HLMs, CPF 3–100 µM, ref Sams et al. ([2004])) was 0.353 nmol/min/mg microsomal protein and the Km (pooled HLMs (CYPs); [4]) was 12 µM. For the same compound, the Vmax (pooled HLMs (CYPs); [4]) was 0.653 nmol/min/mg microsomal protein, the Km (pooled HLMs (CYPs); read-out: Km (high affinity), Pathway 1 (CPF to CPO), pooled HLMs, CPF 0.02–10 µM, ref Buratti et al. ([2003])) was 0.27 µM and the Km (pooled HLMs (CYPs); read-out: Km (low affinity), apparent Km in pooled HLMs, Pathway 1 (CPF to CPO), CPF 3–100 µM, ref Sams et al. ([2004])) was 29.8 µM. The “ka (absorption rate constant)” value ([3]; PBK model input, mean, ref Bouchard et al. ([2005])) was 0.46 h⁻¹, the “fa (fractional absorption), mean” value ([3]; mean of the reported fa values, ref Timchalk et al. ([2002]), Nolan et al. ([1984])) was 0.462 and 0.46 and the “fa (fractional absorption)” value ([3]; ref Nolan et al. ([1984])) was 0.7. For the same compound, the “fa (fractional absorption)” value ([3]; ref Timchalk et al. ([2002])) was 0.224, the “Km of high affinity phase lower than that of low affinity phase” value (rat liver microsomes) was 50 fold and the “BMDL10 (EPA, derived from human PBPK-PD model)” value (RBC AChE) was 0.47 mg/kg bw.
